Source: patent US11690854B2, “Methods of treating heavy menstrual bleeding” (priority 2018, dated 2023)
Marks after values point to notes of the source that are not given here.

How the values were obtained:
[1] = Binding to human plasma proteins; type: in vitro ADME; details: read-out: % Bound to human plasma proteins (converted)
[2] = tested on: healthy women; test: 3-menstrual cycle study in healthy women; type: in vivo, human
[3] = tested on: premenopausal women with endometriosis with associated pain; test: Phase 3 Study EM-II (and extension EM-IV); type: in vivo, human
From the text: Each placebo-controlled study assessed the reduction in endometriosis-associated pain over 6 months of treatment. More than 75 percent of women who completed Study EM-I and EM-II enrolled in the extension studies for an additional 6 month treatment period. Subjects were followed for up to 12 months post-treatment. The co-primary efficacy endpoints were the proportion of responders for dysmenorrhea and pelvic pain not related to menses (also known as non-menstrual pelvic pain [NMPP]) at Month 3 compared to placebo. The primary analysis independently evaluated these endpoints using a daily diary that asked patients to assess their pain and its impact on their daily activities, over the previous 24 hours. […] Women were defined as responders if they experienced clinically meaningful reduction in dysmenorrhea and/or NMPP with no increased analgesic use for endometriosis associated pain. Dyspareunia was evaluated as a secondary endpoint using the Daily Endometriosis Pain Impact Scale.

[4] = tested on: rats; test: 2-year carcinogenicity study in rats; type: in vivo; details: rat
From the text: The rat tumors were identified as being species-specific and of negligible relevance to humans. This conclusion is based on a follow-on thyroid and hepatic effects-related investigative study performed to document the possibility that thyroid and liver tumors may be specific to rat and occurred via induction of hepatic drug metabolizing enzymes at the high dose.

[5] = tested on: premenopausal women with HMB and UF; test: Phase 2b trial, post hoc subgroup with uterine fibroids and non-dominant adenomyosis; type: in vivo, human; details: 6 months
Method: Patients and Methods: […] Elagolix studied in this clinical trial comprised the sodium salt of Compound A. All subjects were evaluated with ultrasound and a subset volunteered to also be evaluated by MRI. […] Efficacy and safety were evaluated post hoc in a subgroup of women who had confirmed non-dominant adenomyosis (ultrasound/MRI) at baseline. Menstrual blood loss (MBL) was quantified from sanitary products (alkaline hematin). […] Adverse events (AEs) were recorded.

[6] = Pharmacokinetics in specific populations (renal, hepatic impairment); type: in vivo, human; details: for Elagolix exposures in severe hepatic impairment relative to normal hepatic function: severe hepatic impairment (Child-Pugh C)
From the text: The mean exposures are similar for women with moderate to severe or end stage renal disease (including women on dialysis) compared to women with normal renal function.
Elagolix exposures (Cmax and AUC) are similar between women with normal hepatic function and women with mild hepatic impairment. Elagolix exposures in women with moderate and severe hepatic impairment are approximately 3-fold and 7-fold, respectively, of exposures from women with normal hepatic function.

[7] = tested on: premenopausal women with uterine fibroids; test: Phase 2a trial of Elagolix with or without add-back in uterine fibroids with heavy menstrual bleeding; type: in vivo, human; details: for Percent of subjects achieving composite bleeding endpoint (MBL <80 mL at Final Month and ≥50% reduction in MBL from baseline, AH method): last 28 days of treatment, placebo 30%; for Percent of subjects with ≥25% reduction in uterine volume: placebo 9%; for Percent of subjects with ≥25% reduction in fibroid volume: placebo 29%; for Average Total Blood Loss Measured by AH Method During Treatment: 3 months of treatment, placebo 569.7; for Average Total MBL in Days 66-95 Post-Baseline: placebo 190.3; for Average total MBL from days 6-35 post-baseline: placebo 190.5; for Average Total MBL from Days 36-65 Post-Baseline: placebo 194.6
Method: Methods for analyzing menstrual blood loss are known in the art and include, for example, the alkaline hematin method. The alkaline hematin method is based on the quantitation of menstrual blood collected on sanitary products (Hallberg L., Nilsoon L., Determination of Menstrual Blood Loss. Scand. J. Clin. Lab. Invest., 1964; 16:244-248). The method uses a strong alkaline solution to chemically convert the heme from bloodstained sanitary products to alkaline hematin, which is measured colorimetrically. When compared to a subject's serum hemoglobin (Hgb), the volume of blood loss in the menstrual products can be determined. […] The study involved the following six (6) cohorts: Cohort 1: […] Cohort 2: Elagolix 300 mg BID or placebo. Cohort 3: […] Cohort 4: […] Cohort 6: […] There are a number of efficacy endpoints, but a composite endpoint consisting of two bleeding assessments was used to assess one measure of efficacy. […] Eighty-five percent (85%), 97%, and 30% of subjects achieved the composite bleeding assessment endpoint in the 200 mg BID, 300 mg BID, and placebo groups, respectively (P<0.05 for 200 mg BID versus placebo in cohort 1, and 300 mg BID versus placebo in cohort 2). […] Quality of life (QoL) measures were also determined using the “Responsiveness of the uterine fibroid symptom and health-related quality of life questionnaire” (UFS-QOL) (Harding, Gale, Coyne Karin S., Thompson Christine L., Spies James B, United BioSource Corporation, 7101 Wisconsin Avenue, Suite 600, Bethesda, Md., 20814, USA, Health and Quality Life Outcomes, 2008, 6, page 99).

[8] = 100 BID, screening 276.4 mL per cycle
[9] = 200 BID, screening 287.4 mL per cycle
[10] = 300 BID, screening 224.8 mL per cycle
[11] = 400 QD, screening 220.3 mL per cycle
[12] = 600 QD, screening 228.7 mL per cycle

Structure (SMILES): COc1cccc(-c2c(C)n(Cc3c(F)cccc3C(F)(F)F)c(=O)n(C[C@H](NCCCC(=O)O)c3ccccc3)c2=O)c1F [Elagolix, 4-((R)-2-[5-(2-fluoro-3-methoxy-phenyl)-3-(2-fluoro-6-trifluoromethyl-benzyl)-4-methyl-2,6-dioxo-3,6-dihydro-2H-pyrimidin-1-yl]-1-phenyl-ethylamino)-butyric acid]
- fraction unbound [1]: 0.2
- Ovulation rate ([2]; 150 mg QD): approximately 50%
- Mean endometrial thickness (transvaginal ultrasound) ([2]; 150 mg QD and 200 mg BID, compared to pretreatment values): dose dependent decrease in the mean endometrial thickness
- Ovulation rate ([2]; 200 mg BID): ~32%
- Proportion of responders for Dyspareunia (Daily Endometriosis Pain Impact Scale) ([3]; 150 mg QD, Month 3, n/N 70/159, placebo 39.5): 44.0%
- Proportion of responders for dysmenorrhea (Daily Endometriosis Pain Impact Scale) ([3]; 150 mg QD, Month 3, n/N 96/221, placebo 22.7): 43.4%***
- Proportion of responders for Non-Menstrual Pelvic Pain (Daily Endometriosis Pain Impact Scale) ([3]; 150 mg QD, Month 3, n/N 110/221, placebo 36.5): 49.8** %
- Proportion of responders for Dyspareunia (Daily Endometriosis Pain Impact Scale) ([3]; 150 mg QD, Month 6, n/N 65/163, placebo 39.4): 39.9%
- Proportion of responders for dysmenorrhea (Daily Endometriosis Pain Impact Scale) ([3]; 150 mg QD, Month 6, n/N 102/221, placebo 25.4): 46.2%***
- Proportion of responders for Non-Menstrual Pelvic Pain (Daily Endometriosis Pain Impact Scale) ([3]; 150 mg QD, Month 6, n/N 114/221, placebo 40.6): 51.6%**
- Proportion of responders for Dyspareunia (Daily Endometriosis Pain Impact Scale) ([3]; 200 mg BID, Month 3, n/N 87/162, placebo 39.5): 53.7** %
- Proportion of responders for Non-Menstrual Pelvic Pain (Daily Endometriosis Pain Impact Scale) ([3]; 200 mg BID, Month 3, n/N 130/225, placebo 36.5): 57.8*** %
- Proportion of responders for dysmenorrhea (Daily Endometriosis Pain Impact Scale) ([3]; 200 mg BID, Month 3, n/N 163/225, placebo 22.7): 72.4*** %
- Proportion of responders for Dyspareunia (Daily Endometriosis Pain Impact Scale) ([3]; 200 mg BID, Month 6, n/N 92/165, placebo 39.4): 55.8*** %
- Proportion of responders for Non-Menstrual Pelvic Pain (Daily Endometriosis Pain Impact Scale) ([3]; 200 mg BID, Month 6, n/N 140/225, placebo 40.6): 62.2*** %
- Proportion of responders for dysmenorrhea (Daily Endometriosis Pain Impact Scale) ([3]; 200 mg BID, Month 6, n/N 173/225, placebo 25.4): 76.9*** %
- Margin of safety at the high dose with respect to 200 mg BID in women ([4]; both, in vivo, 2 years): 13 fold
- Tumors in 2-year carcinogenicity study ([4]; high dose, identified as species-specific): increase in thyroid (male and female) and liver (males only) tumors
- Proportion of women with ≥50% reduction from baseline in HMB and <80 mL MBL in the last 28 days of treatment ([5]; Cohort 1 (300 mg BID, with or without E2/NETA), placebo 40% (n=10)): 80%
- Proportion of women with ≥50% reduction from baseline in HMB and <80 mL MBL in the last 28 days of treatment ([5]; Cohort 2 (600 mg QD, with or without E2/NETA), placebo 13% (n=16)): 92%
- Elagolix exposures in moderate hepatic impairment relative to normal hepatic function ([6]; moderate hepatic impairment (Child-Pugh B)): approximately 3 fold
- Elagolix exposures (Cmax and AUC) in renal impairment ([6]; moderate to severe or end stage renal disease vs normal renal function): not altered by renal impairment
- Elagolix exposures in severe hepatic impairment relative to normal hepatic function [6]: ~7 fold
- Elagolix exposures in severe hepatic impairment relative to normal hepatic function ([6]; listed as elagolix): approximately 7 fold
- Elagolix exposures (Cmax and AUC) in mild hepatic impairment ([6]; vs women with normal hepatic function): similar
- Percent of subjects achieving composite bleeding endpoint (MBL <80 mL at Final Month and ≥50% reduction in MBL from baseline, AH method) ([7]; 200 mg BID): 85%
- Percent of subjects with ≥25% reduction in uterine volume ([7]; 200 mg BID): 50%
- Percent of subjects with ≥25% reduction in fibroid volume ([7]; 200 mg BID): 63%
- Inhibition of bleeding ([7]; 300 mg BID without add-back therapy): maximum inhibition of bleeding (most of women achieved amenorrhea)
- Women who reported an adverse event of hot flash ([7]; 300 mg BID, 400 mg QD and 600 mg QD without add-back): 50-62.5%
- Effect on uterine and fibroid volumes (FIG. 4) ([7]; 300 mg BID, compared with other Elagolix treatments): showed the strongest effects
- Percent of subjects achieving composite bleeding endpoint (MBL <80 mL at Final Month and ≥50% reduction in MBL from baseline, AH method) ([7]; 300 mg BID): 97%
- Percent of subjects with ≥25% reduction in uterine volume ([7]; 300 mg BID): 68%
- Percent of subjects with ≥25% reduction in fibroid volume ([7]; 300 mg BID): 55%
- Inhibition of bleeding compared with 300 mg BID ([7]; 400 mg QD and 600 mg QD): slightly less effective
- Average Total Blood Loss Measured by AH Method During Treatment ([7]; 100 BID, N = 26): 198.4 mL
- Average Total MBL in Days 66-95 Post-Baseline [7, 8]: 65.4 mL
- Average total MBL from days 6-35 post-baseline [7, 8]: 33.2 mL
- Average Total MBL from Days 36-65 Post-Baseline [7, 8]: 100.9 mL
- Average Total Blood Loss Measured by AH Method During Treatment ([7]; 200 BID, N = 28): 47.0 mL
- Average Total MBL in Days 66-95 Post-Baseline [7, 9]: 41.5 mL
- Average total MBL from days 6-35 post-baseline [7, 9]: 0 mL
- Average Total MBL from Days 36-65 Post-Baseline [7, 9]: 5.5 mL
- Average Total Blood Loss Measured by AH Method During Treatment ([7]; 300 BID, N = 26): 4.3 mL
- Average Total MBL in Days 66-95 Post-Baseline [7, 10]: 4.3 mL
- Average total MBL from days 6-35 post-baseline [7, 10]: 0 mL
- Average Total MBL from Days 36-65 Post-Baseline [7, 10]: 0 mL
- Average Total Blood Loss Measured by AH Method During Treatment ([7]; 400 QD, N = 26): 38.4 mL
- Average Total MBL in Days 66-95 Post-Baseline [7, 11]: 21.6 mL
- Average total MBL from days 6-35 post-baseline [7, 11]: 14.9 mL
- Average Total MBL from Days 36-65 Post-Baseline [7, 11]: 12.4 mL
- Average Total Blood Loss Measured by AH Method During Treatment ([7]; 600 QD, N = 24): 69.6 mL
- Average Total MBL in Days 66-95 Post-Baseline [7, 12]: 14.9 mL
- Average total MBL from days 6-35 post-baseline [7, 12]: 27.6 mL
- Average Total MBL from Days 36-65 Post-Baseline [7, 12]: 35.0 mL
